# “Also recorded” adds a separate entry of the source.
# How the values were obtained:
# [1] = Permeability (Papp); format: in vitro ADME; settings: not told
# [2] = Pharmacokinetics in wild-type mice with or without rifampin co-dose; format: in vivo, wild-type FVB male mice
# Experimental: (§1) Age-matched Oatp1a/1b cluster-knockout, OATP1B1- or OATP1B3-knockin mice humanized on the Oatp1a/1b-knockout background, and wild-type FVB male mice were purchased from Taconic Biosciences (Hudson, N.Y., USA). Mice were between 8 and 10 weeks of age (22-34 g) at the time of study. Compound 1 was administered at a dose of 0.5 mg/kg coadministered with either vehicle or rifampin (30 mg/kg). Blood and liver samples were collected at 0.083, 0.25, 0.5, 1, 1.5, 3, 6 hours. Plasma was isolated from blood samples by centrifugation. All samples were stored at −80° C. until bioanalysis.
# (§2) Compound 1 was dosed via intravenous administration to WT, humanized, and KO mice. Blood, urine, and feces were collected from the animals over 6 hours. Blood spots were collected and expelled FTA™ DMPK-B DBS Card (GE Healthcare, Life Sciences, Whatman™) within the appropriate sample circle. Pharmacokinetics of Compound 1 in WT animals was also assessed after co-administration with rifampin. Liver samples were also collected from WT animals and frozen until analysis. All samples were analyzed using LC-MS/MS and the pharmacokinetics parameters of Compound 1 were determined with Phoenix WinNonlin using non-compartmental analysis.
# (§3) FIG. 2A through 2C show an in vivo PK profile and elimination of Compound 1 with and without a co-dose of the Oatp/OATP inhibitor Rifampin in different mouse models.
# [3] = test system: OATP1B1/1B3; assay: Pharmacokinetics in humanized OATP1B1/1B3 mice with or without rifampin co-dose; format: in vivo; settings: 0.5 mg/kg IV, rifampin 30 mg/kg
# Experimental: as §1, §2, §3
structure (smiles),measurement,setting,value
O=[P@]1(S)OC[C@H]2O[C@@H]3[C@H](F)[C@@H]2O[P@](=O)(S)OC[C@H]2O[C@H]([C@H](F)[C@@H]2O1)n1cnc2c(ncnc21)NC/C=C/CNc1ncnc2c1ncn23 [Compound 1],Papp,[1],0.36 ×10⁻⁶ cm/s
same,fold decrease of liver/plasma Kp with rifampin,"[2]; male, FVB, mouse, liver and plasma, with rifampin 30 mg/kg co-dosed, wild type mice, IV, read-out: decrease of Kp (liver/plasma) in the presence of Rifampin",5
same,decrease of biliary excretion on co-dosing rifampin,"[2]; mouse models of FIG. 2A-2C (wild type and OATP1Bs humanized), rifampin co-dose",66-79%
same,increase of Cmax in the presence of rifampin,"[2]; wild type mice, IV",about 2 fold
same,increase in plasma exposure in the presence of rifampin,"[2]; wild-type mice, 0.5 mg/kg IV, rifampin 30 mg/kg",5.4 fold
same,liver exposure (AUC) in the presence vs absence of rifampin,"[2]; wild-type mice, IV, rifampin co-administered",did not change significantly; also recorded: comparable
same,increase in plasma concentration/exposure in the presence of rifampin,[3],4.5 fold

# Reference: patent publication US12564600B2, “System for enhancing therapeutic compliance of the anti-cancer compound E7766” (Eisai R&D Management Co., Ltd., priority 2019, dated 2026)
